Results from PubChem BioAssay (NCI).
Several values for one entry are separate records, joined by “and”; a condition that tells them apart may be missing. Equal values may be shown once.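 In this assay, cells in 96-well plates receive the compound at five concentrations for 48 hours. Endpoints are linearly interpolated between the surrounding concentrations. TGI is the concentration that stops growth completely.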

Key:
Assay in all cases: NCI anticancer screen, dose series, 48 h
[1] = tested on: HCC-2998 colon
[2] = tested on: HL-60(TB) leukemia
[3] = tested on: HS 578T breast
[4] = tested on: MDA-MB-231 breast
[5] = tested on: NCI-H522 lung
[6] = tested on: OVCAR-8 ovarian
[7] = tested on: SNB-19 CNS
[8] = tested on: SNB-75 CNS
[9] = tested on: TK-10 renal
[10] = tested on: U251 CNS
[11] = tested on: UO-31 renal

Row | SMILES | TGI [1] | TGI [2] | TGI [3] | TGI [4] | TGI [5] | TGI [6] | TGI [7] | TGI [8] | TGI [9] | TGI [10] | TGI [11]
1 | CC(C)OP(=O)(OC(C)C)/C(C#N)=C/c1ccco1 | > 100 µM | > 100 µM | > 100 µM | > 100 µM | > 100 µM | > 100 µM | > 100 µM | > 100 µM | > 100 µM | > 100 µM | 9.38 µM
2 | CCOP(=O)(C/C=C/Cn1nc(Br)c(=O)[nH]c1=O)OCC | > 100 µM | > 100 µM | > 100 µM | > 100 µM | > 100 µM | > 100 µM | > 100 µM | > 100 µM | > 100 µM | > 100 µM | > 100 µM
3 | C/C1=C/C(C)CC(C)OC(=O)C(C)NC(=O)C(Cc2ccc(O)c(I)c2)N(C)C(=O)C(C)NC(=O)C(C)C1 (stereo unspecified) | 5.2 µM | < 0.01 µM | < 0.0392 µM | 0.963 µM | 0.649 µM | 17.9 µM | > 100 µM | < 0.01 µM | 0.046 µM | 0.892 µM | –
4 | CN(C)CC1COC2Cc3ccccc3C1O2 (stereo unspecified) | > 100 µM | > 100 µM | > 100 µM | > 100 µM | > 100 µM | > 100 µM | > 100 µM | 75.7 µM and 94.5 µM | > 100 µM | > 100 µM | > 100 µM
5 | CCOC(=O)Cc1csc2[n+]1C(=O)/C(=C\c1cccc(Cl)c1Cl)S2 | 39.7 µM | 51.5 µM | 89.7 µM | 87.4 µM | 41.3 µM | 35.9 µM | 88 µM | 76.6 µM | 55.6 µM | 64.6 µM | 27.1 µM
6 | CC(C)(C)OC(=O)N(O)CCCn1cnc2c(N)ncnc21 | > 100 µM | – | > 100 µM | > 100 µM | > 100 µM | > 100 µM | > 100 µM | > 100 µM | > 100 µM | > 100 µM | > 100 µM
7 | O=C(O)Cc1ccc(Oc2nc3ccccc3nc2C(=O)O)cc1 | > 100 µM | > 100 µM | > 100 µM | > 100 µM | > 100 µM | > 100 µM | > 100 µM | > 100 µM | > 100 µM | > 100 µM | > 100 µM
8 | CCOC(=O)c1sc(N/N=C2\NC(=O)/C(=C/c3ccc([N+](=O)[O-])cc3)S2)nc1C | 85.3 µM | 51.8 µM | > 100 µM | 49.2 µM | 40.9 µM | 65.2 µM | > 100 µM | 74.6 µM | > 100 µM | > 100 µM | 47 µM
9 | Cc1ccc(S(=O)(=O)N2C[C@](O)(c3ccccc3)[C@H]2C)cc1 | – | > 100 µM | > 100 µM | > 100 µM | > 100 µM | > 100 µM | > 100 µM | > 100 µM | > 100 µM | > 100 µM | > 100 µM
10 | C=C(C)CC1(O)C(=O)C(OCC)=C1OCC (stereo unspecified) | – | > 100 µM | > 100 µM | > 100 µM | > 100 µM | > 100 µM | > 100 µM | > 100 µM | > 100 µM | > 100 µM | > 100 µM
11 | Oc1ccccc1C=Nc1ccc(-c2nc3ccccc3[nH]2)cc1 | – | > 100 µM | > 100 µM | > 100 µM | > 100 µM | > 100 µM | > 100 µM | > 100 µM | > 100 µM | > 100 µM | > 100 µM
12 | CCN(CC)CCN1C(=O)c2c(c(-c3ccccc3)c3ccccc3c2-c2ccccc2)C1=O | > 100 µM | > 100 µM | > 100 µM | > 100 µM | > 100 µM | > 100 µM | > 100 µM | > 100 µM | > 100 µM | > 100 µM | –
13 | Cc1nn(C(=O)c2ccncc2)c2c1C(c1ccccc1)SC(N)=N2 (stereo unspecified) | > 10 µM | > 10 µM | > 10 µM | > 10 µM | > 10 µM | > 10 µM | > 10 µM | > 10 µM | > 10 µM | > 10 µM | –
14 | Cc1ccc(N=N/C(=N/NC(=O)c2cc(Cl)ccc2C(=O)c2ccccc2)c2ccc(N(CCC#N)CCC#N)cc2C)cc1 | 43.9 µM | – | > 100 µM | 24.8 µM | 19.9 µM | 29.9 µM | > 100 µM | > 100 µM | > 100 µM | > 100 µM | > 100 µM
15 | Cc1cc(N=Nc2c(O)ccc3ccccc23)ccc1N=Nc1cccc([N+](C)(C)C)c1 | > 100 µM | – | 47 µM | 55.3 µM | > 26.1 µM | 57.3 µM | 26 µM | 26.3 µM | 49.5 µM | 14.1 µM | 29.7 µM
